Holding throughout (format): cell-based, human
Test [1] concerns HTT mRNA. Briefly: RT-qPCR splicing assay, HTT canonical (CJ) and alternative (AJ) junction mRNA. The settings on record: for AC50: read-out: HTT AJ (AC50, increase in AJ mRNA). On the procedure: (§1) Compounds described herein were used to modulate RNA transcript abundance in cells. The expression of a target mRNA was measured by detecting the formation of an exon-exon junction in the canonical transcript (CJ). A compound mediated exon-inclusion event was detected by observing an increase in formation of a new junction with an alternative exon (AJ). Real-time qPCR assays were used to detect these splicing switches and interrogate the potency of various compounds towards different target genes. A high-throughput real time quantitative PCR (RT-qPCR) assay was developed to measure these two isoforms of the mRNA (CJ and AJ) for exemplary genes, such as HTT, SMN2, and MYB, together with a control housekeeping gene, GAPDH or GUSB or PPIA, used for normalization. Briefly, the A673 or K562 cell line was treated with various compounds described herein (e.g., compounds of Formula (I), (II), (III), (IV)). After treatment, the levels of the HTT, MYB, or SMN2 mRNA targets were determined from each sample of cell lysate by cDNA synthesis followed by qPCR.
(§2) The A673 cell line was cultured in DMEM with 10% FBS. Cells were diluted with full growth media and plated in a 96-well plate (15,000 cells in 100ul media per well). The plate was incubated at 37° C. with 5% CO2 for 24 hours to allow cells to adhere. An 11-point 3-fold serial dilution of the compounds was made in DMSO then diluted in media in an intermediate plate. Compounds were transferred from the intermediate plate to the cell plate with the top dose at a final concentration of 10 uM in the well. Final DMSO concentration was kept at or below 0.25%. The cell plate was returned to the incubator at 37° C. with 5% CO2 for an additional 24 hours.
(§3) The K562 cell line was cultured in IMDM with 10% FBS. For K562, cells were diluted with full growth media and plated in either a 96-well plate (50,000 cells in 50 uL media per well) or a 384-well plate (8,000-40,000 cells in 45 uL media per well). An 11-point 3-fold serial dilution of the compounds were made in DMSO then diluted in media in an intermediate plate.
(§4) Compound was transferred from the intermediate plate to the cell plate with the top dose at a final concentration of 10 uM in the well. Final DMSO concentration was kept at or below 0.25%.
(§5) Final volume was 100 uL for 96-well plate and 50 uL for 384-well plate. The cell plate was then placed in an incubator at 37° C. with 5% CO2 for 24 hours.
(§6) The cells were then gently washed with 50 uL-100 uL cold PBS before proceeding to addition of lysis buffer. 30 uL-50 μL of room temperature lysis buffer with DNAse I (and optionally RNAsin) was added to each well. Cells were shaken/mixed thoroughly at room temperature for 5-10 minutes for lysis to take place and then 3 uL-5 μL of room temperature stop solution was added and wells were shaken/mixed again. After 2-5 minutes, the cell lysate plate was transferred to ice for RT-qPCR reaction setup. The lysates could also be frozen at −80° C. for later use.
(§7) In some cases, a direct lysis buffer was used. An appropriate volume of 3× lysis buffer (10 mM Tris, 150 mM NaCl, 1.5%-2.5% Igepal and 0.1-1 U/uL RNAsin, pH 7.4) was directly added to either K562 or A673 cells in media and mixed by pipetting 3 times. The plates were then incubated at room temperature with shaking/rocking for 20-50 minutes to allow for lysis to take place. After this time, the cell lysate plate was transferred to ice to set up for the RT-qPCR reactions. The lysates could also be frozen at −80° C. for later use.
(§8) To set up 10 uL RT-qPCR reactions, cell lysates were transferred to 384-well qPCR plates containing the master mix according to the table below. The plates were sealed, gently vortexed, and spun down before the run. The volumes were adjusted accordingly in some instances where the reaction was carried in 20 μL. The table below summarizes the components of the RT-qPCR reactions: […]

The subject of test [2] is MYB mRNA. Briefly: RT-qPCR splicing assay, MYB canonical (CJ) and alternative (AJ) junction mRNA. The settings on record: for AC50: read-out: MYB AJ (AC50, increase in AJ mRNA). The procedure: as §1, §2, §3, §4, §5, §6, §7, §8
Test [3] has as its system Target C mRNA. Briefly: RT-qPCR splicing assay panel, Target C canonical junction (CJ) mRNA. The settings on record: Homo sapiens. On the procedure:
as §1, §2, §3, §4, §5, §6, §7, §8

Test [4] concerns SMN2 mRNA. Briefly: RT-qPCR splicing assay panel, SMN2 canonical junction (CJ) mRNA. The procedure:
as §1, §2, §3, §4, §5, §6, §7, §8

[5] abbreviates: Homo sapiens, 24 h, Table 3A, A673 or K562 cells, 24 h treatment.
The mark [6] stands for this setting: Homo sapiens, 24 h, Table 3A, A673 or K562 cells, 24 h treatment, read-out: HTT CJ (IC50, decrease in CJ mRNA).
The mark [7] stands for this setting: Homo sapiens, canonical junction (CJ) mRNA, RT-qPCR panel, Table 4A, read-out: HTT, decrease in CJ mRNA levels, IC50.
Setting [8] is: Homo sapiens, 24 h, Table 3A, A673 or K562 cells, 24 h treatment, read-out: MYB CJ (IC50, decrease in CJ mRNA).
[9] abbreviates: Homo sapiens, canonical junction (CJ) mRNA, RT-qPCR panel, Table 4A, read-out: MYB, decrease in CJ mRNA levels, IC50.
Where [10] appears, read: canonical junction (CJ) mRNA, RT-qPCR panel, Table 4A, read-out: Target C, decrease in CJ mRNA levels, IC50.
Where [11] appears, read: Homo sapiens, canonical junction (CJ) mRNA, RT-qPCR panel, Table 4A, read-out: SMN2, decrease in CJ mRNA levels, IC50.
Where [12] appears, read: Homo sapiens, 24 h, Table 3B, A673 or K562 cells, 24 h treatment.
Where [13] appears, read: Table 3A, A673 or K562 cells, 24 h treatment, read-out: MYB CJ (IC50, decrease in CJ mRNA).
The mark [14] stands for this setting: canonical junction (CJ) mRNA, RT-qPCR panel, Table 4A, read-out: SMN2, decrease in CJ mRNA levels, IC50.

Consider 14 molecules from patent US20250333397A1 (REMIX THERAPEUTICS INC., priority 2021, published 2025).

SMILES strings stand for the structures. Read-outs that look alike come from different tables or passages of the source.

In the case of `Oc1cc(-c2ccnnc2)ccc1-c1ccc(N2CCC(NC3CCC3)C2)nn1` (stereo not shown) [Compound 388], the AC50 in test [1] (setting [5]) and in test [2] (setting [5]) was 1 to 10 µM in each case. Besides, the IC50 in test [1] (setting [6]) was 1 to 10 µM; in test [1] (setting [7]) it was 1 to 10 µM; in test [2] (setting [8]) it was 1 to 10 µM; in test [2] (setting [9]), 1 to 10 µM; in test [3] (setting [10]), 1 to 10 µM; in test [4] (setting [11]) it was 0.1 to 1 µM.

Take `Cc1cn2nc(-c3ccc(-c4ccc(N5CCC(NC6CCC6)C5)nn4)c(O)c3)cc(C)c2n1` (stereo not shown) [Compound 317]: the AC50 in test [1] (setting [5]) and in test [2] (setting [5]) was 0.1 to 1 µM throughout. The 50% inhibitory concentration (IC50) was under 0.1 µM in test [1] (setting [6]); under 0.1 µM in test [1] (setting [7]); 0.1 to 1 µM in test [2] (setting [8]); 0.1 to 1 µM in test [2] (setting [9]); 0.1 to 1 µM in test [3] (setting [10]); 0.1 to 1 µM in test [4] (setting [11]).

In the case of `Cn1cnc(-c2ccc(-c3ccc(N4CC[C@H](NC(C)(C)C)C4)nn3)c(O)c2)cc1=O` [Compound 236, 6-(4-{6-[(3S)-3-(tert-butylamino)pyrrolidin-1-yl]pyridazin-3-yl}-3-hydroxyphenyl)-3-methylpyrimidin-4-one], the AC50 in test [1] (setting [5]) and in test [2] (setting [5]) was 0.1 to 1 µM in each case. In addition, the IC50 in test [1] (setting [6]) and in test [2] (setting [8]) was 0.1 to 1 µM each time.

In the case of `COc1nccc(-c2ccc(-c3ccc(N4CCC(NCC5CC5)C4)nn3)c(O)c2)n1` (stereo not shown) [Compound 368], the AC50 in test [1] (setting [5]) fell in the range of 0.1 to 1 µM; in test [2] (setting [5]), 1 to 10 µM. In addition, the IC50 in test [1] (setting [6]) was 0.1 to 1 µM; in test [1] (setting [7]), 0.1 to 1 µM; in test [2] (setting [8]), 1 to 10 µM; in test [2] (setting [9]), 1 to 10 µM; in test [3] (setting [10]), 1 to 10 µM; in test [4] (setting [11]), 0.1 to 1 µM.

Take `COc1cc(-c2ccc(-c3ccc(N4CC[C@@H](N(C)C5CCC5)C4)nn3)c(O)c2)cnn1` [Compound 238, 2-{6-[(3R)-3-[cyclobutyl(methyl)amino]pyrrolidin-1-yl]pyridazin-3-yl}-5-(6-methoxypyridazin-4-yl)phenol]: the AC50 in test [1] (setting [5]) and in test [2] (setting [5]) was 0.1 to 1 µM throughout. Further, the IC50 is under 0.1 µM in test [1] (setting [6]) and 0.1 to 1 µM in test [2] (setting [8]).

On to `Cn1cc2cc(-c3ccc(N4CCC(NC(C)(C)C)C4)nn3)c(O)cc2n1` (stereo not shown) [Compound 801], for which the half-maximal activity concentration (AC50) in test [1] (setting [12]) and in test [2] (setting [12]) was 1 to 10 µM each time. The IC50 in test [1] (Homo sapiens, 24 h, Table 3B, A673 or K562 cells, 24 h treatment, read-out: HTT CJ (IC50, decrease in CJ mRNA)) was in the range of 1 to 10 µM; in test [1] (Homo sapiens, Table 4B, gene panel, read-out: HTT (IC50, decrease in CJ mRNA levels)), 1 to 10 µM; in test [2] (Homo sapiens, 24 h, Table 3B, A673 or K562 cells, 24 h treatment, read-out: MYB CJ (IC50, decrease in CJ mRNA)) it was 1 to 10 µM; in test [2] (Homo sapiens, Table 4B, gene panel, read-out: MYB (IC50, decrease in CJ mRNA levels)) it was 1 to 10 µM; in test [3] (Table 4B, gene panel, read-out: Target C (IC50, decrease in CJ mRNA levels)) it was 1 to 10 µM; in test [4] (Homo sapiens, Table 4B, gene panel, read-out: SMN2 (IC50, decrease in CJ mRNA levels)), 0.1 to 1 µM.

With `COc1cc(-c2cc(O)c(-c3ccc(N4CC[C@H](N(C)C(C)(C)C)C4)nn3)cc2F)cnn1` [Compound 234, 2-{6-[(3S)-3-[tert-butyl(methyl)amino]pyrrolidin-1-yl]pyridazin-3-yl}-4-fluoro-5-(6-methoxypyridazin-4-yl)phenol], the AC50 in test [1] (setting [5]) and in test [2] (setting [5]) was under 0.1 µM each time. Besides, the IC50 in test [1] (setting [6]) and in test [2] (setting [8]) was under 0.1 µM each time.

Turning to `COc1cc(-c2ccc(-c3ccc(N4CC[C@H](NC5(CF)CC5)C4)nn3)c(O)c2)cnn1` [Compound 241, 2-{6-[(3S)-3-{[1-(fluoromethyl)cyclopropyl]amino}pyrrolidin-1-yl]pyridazin-3-yl}-5-(6-methoxypyridazin-4-yl)phenol], the AC50 in test [1] (setting [5]) and in test [2] (setting [5]) was 0.1 to 1 µM in each case. For the same molecule, the IC50 in test [1] (setting [6]) is under 0.1 µM; in test [2] (setting [8]) it was 0.1 to 1 µM.

Regarding `Cc1nnc(-c2ccc(-c3ccc(N4CC[C@@H](NCC5CC5)C4)nn3)c(O)c2)s1` [Compound 416], the IC50 in test [2] (setting [13]) is 0.1 to 1 µM; in test [4] (setting [14]), under 0.1 µM.

Take `Cc1ncc(-c2cc(O)c(-c3ccc(N4CC[C@H](N[C@H](C)C5CC5)C4)nn3)cc2F)s1` [Compound 394]: the IC50 was under 0.1 µM in test [1] (Table 3A, A673 or K562 cells, 24 h treatment, read-out: HTT CJ (IC50, decrease in CJ mRNA)); under 0.1 µM in test [2] (setting [13]); under 0.1 µM in test [4] (setting [14]). Moreover, the AC50 in test [2] (Table 3A, A673 or K562 cells, 24 h treatment) is under 0.1 µM.

Turning to `Cn1cnc(-c2ccc(-c3ccc(N4CC[C@@H](NC(C)(C)C)C4)nn3)c(O)c2)cc1=O` [Compound 237, 6-(4-{6-[(3R)-3-(tert-butylamino)pyrrolidin-1-yl]pyridazin-3-yl}-3-hydroxyphenyl)-3-methylpyrimidin-4-one], the AC50 was under 0.1 µM in test [1] (setting [5]) and 0.1 to 1 µM in test [2] (setting [5]). The IC50 in test [1] (setting [6]) is under 0.1 µM; in test [2] (setting [8]), 0.1 to 1 µM.

For the molecule `COc1cc(-c2ccc(-c3ccc(N4CC[C@H](N(C)C5CCC5)C4)nn3)c(O)c2)cnn1` [Compound 239], the concentration at half-maximal activity (AC50) in test [1] (setting [5]) was under 0.1 µM; in test [2] (setting [5]) it was 0.1 to 1 µM. In addition, the IC50 in test [1] (setting [6]) was under 0.1 µM; in test [2] (setting [8]), 0.1 to 1 µM.

As to `COc1cc(-c2cc(O)c(-c3ccc(N4CC[C@@H](N(C)C(C)(C)C)C4)nn3)cc2F)cnn1` [Compound 235, 2-{6-[(3R)-3-[tert-butyl(methyl)amino]pyrrolidin-1-yl]pyridazin-3-yl}-4-fluoro-5-(6-methoxypyridazin-4-yl)phenol], the AC50 is under 0.1 µM in test [1] (setting [5]) and 0.1 to 1 µM in test [2] (setting [5]). The IC50 in test [1] (setting [6]) is under 0.1 µM; in test [2] (setting [8]) it was 0.1 to 1 µM.

`COc1cc(-c2ccc(-c3ccc(N4CC[C@@H](NC5(CF)CC5)C4)nn3)c(O)c2)cnn1` [Compound 242, 2-{6-[(3R)-3-{[1-(fluoromethyl)cyclopropyl]amino}pyrrolidin-1-yl]pyridazin-3-yl}-5-(6-methoxypyridazin-4-yl)phenol]: the AC50 in test [1] (setting [5]) and in test [2] (setting [5]) was 0.1 to 1 µM in each case. Moreover, the results for the 50% inhibitory concentration (IC50) in test [1] (setting [6]) and in test [2] (setting [8]) were under 0.1 µM and 0.1 to 1 µM, respectively.
